target: human GlyT1c transporter (Homo sapiens (Human), UniProt P48067); assay: Radioligand binding assay using recombinant CHO cell membranes expressing human GlyT1; conditions: examples marked * tested as fumarate salts, read-out: radioligand binding Kiapp
Sequence (P48067 whole entry): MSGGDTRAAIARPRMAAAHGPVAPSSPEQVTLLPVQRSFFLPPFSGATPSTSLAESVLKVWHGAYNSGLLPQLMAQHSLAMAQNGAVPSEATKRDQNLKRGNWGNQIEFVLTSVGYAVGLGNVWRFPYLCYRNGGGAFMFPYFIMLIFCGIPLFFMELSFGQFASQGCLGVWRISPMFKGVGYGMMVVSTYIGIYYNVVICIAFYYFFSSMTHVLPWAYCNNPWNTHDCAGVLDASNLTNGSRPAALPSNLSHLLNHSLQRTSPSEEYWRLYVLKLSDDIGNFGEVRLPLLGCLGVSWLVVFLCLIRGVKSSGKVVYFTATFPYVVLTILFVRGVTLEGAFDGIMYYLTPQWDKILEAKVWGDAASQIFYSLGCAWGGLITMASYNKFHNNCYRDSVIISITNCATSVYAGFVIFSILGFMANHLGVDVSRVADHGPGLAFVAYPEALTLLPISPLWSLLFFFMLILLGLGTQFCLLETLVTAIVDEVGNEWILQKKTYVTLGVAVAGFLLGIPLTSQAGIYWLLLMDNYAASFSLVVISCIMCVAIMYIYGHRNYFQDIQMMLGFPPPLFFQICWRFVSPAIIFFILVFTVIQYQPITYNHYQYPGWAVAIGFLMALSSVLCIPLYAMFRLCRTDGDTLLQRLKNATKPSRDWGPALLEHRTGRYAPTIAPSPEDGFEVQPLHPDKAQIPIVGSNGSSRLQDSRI

| Ki [nM] | SMILES |
| --- | --- |
| ≤ 100 | O=S(=O)(NC1CN(c2cc3c(cc2F)OC[C@@H](N2CCC2)[C@H]3Cc2ccccc2)C1)c1cncc(F)c1 (relative stereo) [Example 26, Cis-1-(4-benzyl-7-fluoro-6-(3-(5-fluoropyridine-3-sulfonamido)azetidin-1-yl)chroman-3-yl)azetidin-1-ium (E)-3-carboxyacrylate] |
| ≤ 10 | CNC1COc2cc(F)c(N3CC(NS(=O)(=O)c4cnn(C)c4)C3)cc2C1Cc1ccccc1 (single isomer, unassigned) [Example 17b, trans-N-(1-(4-benzyl-7-fluoro-3-(methylamino)chroman-6-yl)azetidin-3-yl)-1-methyl-1H-pyrazole-4-sulfonamide] |
| ≤ 10 | CNC1COc2cc(F)c(N3CC(NS(=O)(=O)c4cn(C)cn4)C3)cc2C1Cc1ccccc1 (single isomer, unassigned) [Example 15a, Cis-N-(1-(4-benzyl-7-fluoro-3-(methylamino)chroman-6-yl)azetidin-3-yl)-1-methyl-1H-imidazole-4-sulfonamide] |
| ≤ 10 | CNC1COc2cc(F)c(N3CC(NS(=O)(=O)CC4CC4)C3)cc2C1Cc1ccccc1 (single isomer, unassigned) [Example 19b, trans-N-(1-(4-benzyl-7-fluoro-3-(methylamino)chroman-6-yl)azetidin-3-yl)-1-cyclopropylmethanesulfonamide] |
| ≤ 10 | CNC1COc2cc(F)c(N3CC(NS(=O)(=O)c4cn(C)cn4)C3)cc2C1Cc1ccccc1 (single isomer, unassigned) [Example 15b, trans-N-(1-(4-benzyl-7-fluoro-3-(methylamino)chroman-6-yl)azetidin-3-yl)-1-methyl-1H-imidazole-4-sulfonamide] |
| ≤ 10 | CCCS(=O)(=O)NC1CN(c2cc3c(cc2F)OCC(NC)C3Cc2ccccc2)C1 (single isomer, unassigned) [Example 16b, trans-N-(1-(4-benzyl-7-fluoro-3-(methylamino)chroman-6-yl)azetidin-3-yl)propane-1-sulfonamide] |
| ≤ 10 | CNC1COc2cc(F)c(N3CC(NS(=O)(=O)c4cnn(C)c4)C3)cc2C1Cc1ccccc1 (single isomer, unassigned) [Example 17a, Cis-N-(1-(4-benzyl-7-fluoro-3-(methylamino)chroman-6-yl)azetidin-3-yl)-1-methyl-1H-pyrazole-4-sulfonamide] |
| ≤ 10 | CNC1COc2cc(F)c(N3CC(NS(=O)(=O)CC4CC4)C3)cc2C1Cc1ccccc1 (single isomer, unassigned) [Example 19a, Cis-N-(1-(4-benzyl-7-fluoro-3-(methylamino)chroman-6-yl)azetidin-3-yl)-1-cyclopropylmethanesulfonamide] |
| ≤ 100 | CCCS(=O)(=O)NC1CN(c2ccc3c(c2)[C@H](Cc2ccccc2)[C@H](N)CO3)C1 (relative stereo) [Example 20, Cis-N-(1-(3-amino-4-benzylchroman-6-yl)azetidin-3-yl)propane-1-sulfonamide] |
| ≤ 10 | CCCS(=O)(=O)NC1CN(c2cc3c(cc2F)OCC(NC)C3Cc2ccccc2)C1 (single isomer, unassigned) [Example 16a, Cis-N-(1-(4-benzyl-7-fluoro-3-(methylamino)chroman-6-yl)azetidin-3-yl)propane-1-sulfonamide] |
| ≤ 100 | CCn1cc(S(=O)(=O)NC2CN(c3cc4c(cc3F)OC[C@@H](N3CCC3)[C@H]4Cc3ccccc3)C2)nn1 (relative stereo) [Example 7, Cis-N-(1-(3-(azetidin-1-yl)-4-benzyl-7-fluorochroman-6-yl)azetidin-3-yl)-1-ethyl-1H-1,2,3-triazole-4-sulfonamide] |
| ≤ 100 | CCS(=O)(=O)NC1CN(c2cc3c(cc2F)OCC(NC)C3Cc2ccccc2)C1 (single isomer, unassigned) [Example 14b, trans-N-(1-(4-benzyl-7-fluoro-3-(methylamino)chroman-6-yl)azetidin-3-yl)ethanesulfonamide] |
| ≤ 100 | CCS(=O)(=O)NC1CN(c2cc3c(cc2F)OCC(NC)C3Cc2ccccc2)C1 (single isomer, unassigned) [Example 14a, Cis-N-(1-(4-benzyl-7-fluoro-3-(methylamino)chroman-6-yl)azetidin-3-yl)ethanesulfonamide] |
| ≤ 10 | CNC1COc2cc(F)c(N3CC(NS(=O)(=O)c4cn(C)nn4)C3)cc2C1Cc1ccccc1 (single isomer, unassigned) [Example 18a, Cis-N-(1-(4-benzyl-7-fluoro-3-(methylamino)chroman-6-yl)azetidin-3-yl)-1-methyl-1H-1,2,3-triazole-4-sulfonamide] |
| ≤ 10 | CNC1COc2cc(F)c(N3CC(NS(=O)(=O)c4cn(C)nn4)C3)cc2C1Cc1ccccc1 (single isomer, unassigned) [Example 18b, trans-N-(1-(4-benzyl-7-fluoro-3-(methylamino)chroman-6-yl)azetidin-3-yl)-1-methyl-1H-1,2,3-triazole-4-sulfonamide] |

test system: not listed separately; assay: Metabolic stability in human liver microsomes; assay type: in vitro ADME; conditions: 0.5 μM test substance, NADPH, 37° C., scaled microsomal clearance, examples marked * tested as fumarate salts
Description: Metabolic stability was determined as follows:
0.5 μM test substance was preincubated together with human liver microsomes (0.25 mg of microsomal protein/[…]) in 0.05 M potassium phosphate buffer of pH 7.4 in microtiter plates at 37° C. for 5 min. The reaction was started by adding NADPH (1.0 mM). After 0, 5, 10, 15, 20 and 30 min the reaction was stopped and cooled with twice the amount of quench solution consisting of acetonitrile/methanol 1:1, and containing 0.2 μM carbutamide. The samples were frozen until analyzed. The remaining concentration of undegraded test substance was determined by LC MSMS. The half-life (T1/2) was determined from the gradient of the signal of test substance/unit time plot, al-lowing to calculate the half-life of the test substance, assuming first order kinetics, from the de-crease in the concentration of the compound with time. The microsomal clearance (mClint) was calculated as follows: mClint=((ln(2)/t1/2)/Microsomal Protein Concentration (mg/ml))*1000, leading to the unit of uL/min/mg. The scaled clearance (mClin_scaled) was calculated as mCLint_scaled=m CLint*(Microsomal Yield (mg/kg BW))/1000000*60, leading to the units L/hr/kg. The Microsomal Yield is defined by the specifics of the used microsomes. Calculations were modified from references: Di, The Society for Biomolecular Screening, 2003, 453-462; Obach, DMD, 1999 vol 27. N 11, 1350-1359.

| human mCl | SMILES |
| --- | --- |
| ≦5 L/h/Kg | CN[C@H]1COc2cc(F)c(N3CC(NS(=O)(=O)c4cn(C)nn4)C3)cc2[C@@H]1Cc1ccccc1 (relative stereo) [Example 18b, trans-N-(1-(4-benzyl-7-fluoro-3-(methylamino)chroman-6-yl)azetidin-3-yl)-1-methyl-1H-1,2,3-triazole-4-sulfonamide] |
| ≦50 L/h/Kg | O=S(=O)(NC1CN(c2cc3c(cc2F)OC[C@@H](N2CCC2)[C@H]3Cc2ccccc2)C1)c1cncc(F)c1 (relative stereo) [Example 26, Cis-1-(4-benzyl-7-fluoro-6-(3-(5-fluoropyridine-3-sulfonamido)azetidin-1-yl)chroman-3-yl)azetidin-1-ium (E)-3-carboxyacrylate] |
| ≦5 L/h/Kg | CCS(=O)(=O)NC1CN(c2cc3c(cc2F)OC[C@H](NC)[C@@H]3Cc2ccccc2)C1 (relative stereo) [Example 14a, Cis-N-(1-(4-benzyl-7-fluoro-3-(methylamino)chroman-6-yl)azetidin-3-yl)ethanesulfonamide] |
| ≦50 L/h/Kg | CN[C@H]1COc2cc(F)c(N3CC(NS(=O)(=O)CC4CC4)C3)cc2[C@H]1Cc1ccccc1 (relative stereo) [Example 19a, Cis-N-(1-(4-benzyl-7-fluoro-3-(methylamino)chroman-6-yl)azetidin-3-yl)-1-cyclopropylmethanesulfonamide] |
| ≦5 L/h/Kg | CN[C@H]1COc2cc(F)c(N3CC(NS(=O)(=O)c4cn(C)cn4)C3)cc2[C@H]1Cc1ccccc1 (relative stereo) [Example 15a, Cis-N-(1-(4-benzyl-7-fluoro-3-(methylamino)chroman-6-yl)azetidin-3-yl)-1-methyl-1H-imidazole-4-sulfonamide] |
| ≦5 L/h/Kg | CCCS(=O)(=O)NC1CN(c2cc3c(cc2F)OC[C@H](NC)[C@H]3Cc2ccccc2)C1 (relative stereo) [Example 16b, trans-N-(1-(4-benzyl-7-fluoro-3-(methylamino)chroman-6-yl)azetidin-3-yl)propane-1-sulfonamide] |
| ≦5 L/h/Kg | CCS(=O)(=O)NC1CN(c2cc3c(cc2F)OC[C@H](NC)[C@H]3Cc2ccccc2)C1 (relative stereo) [Example 14b, trans-N-(1-(4-benzyl-7-fluoro-3-(methylamino)chroman-6-yl)azetidin-3-yl)ethanesulfonamide] |
| ≦50 L/h/Kg | CN[C@H]1COc2cc(F)c(N3CC(NS(=O)(=O)CC4CC4)C3)cc2[C@@H]1Cc1ccccc1 (relative stereo) [Example 19b, trans-N-(1-(4-benzyl-7-fluoro-3-(methylamino)chroman-6-yl)azetidin-3-yl)-1-cyclopropylmethanesulfonamide] |
| ≦5 L/h/Kg | CN[C@H]1COc2cc(F)c(N3CC(NS(=O)(=O)c4cn(C)cn4)C3)cc2[C@@H]1Cc1ccccc1 (relative stereo) [Example 15b, trans-N-(1-(4-benzyl-7-fluoro-3-(methylamino)chroman-6-yl)azetidin-3-yl)-1-methyl-1H-imidazole-4-sulfonamide] |
| ≦5 L/h/Kg | CCCS(=O)(=O)NC1CN(c2cc3c(cc2F)OC[C@H](NC)[C@@H]3Cc2ccccc2)C1 (relative stereo) [Example 16a, Cis-N-(1-(4-benzyl-7-fluoro-3-(methylamino)chroman-6-yl)azetidin-3-yl)propane-1-sulfonamide] |
| ≦5 L/h/Kg | CN[C@H]1COc2cc(F)c(N3CC(NS(=O)(=O)c4cnn(C)c4)C3)cc2[C@H]1Cc1ccccc1 (relative stereo) [Example 17a, Cis-N-(1-(4-benzyl-7-fluoro-3-(methylamino)chroman-6-yl)azetidin-3-yl)-1-methyl-1H-pyrazole-4-sulfonamide] |
| ≦5 L/h/Kg | CN[C@H]1COc2cc(F)c(N3CC(NS(=O)(=O)c4cnn(C)c4)C3)cc2[C@@H]1Cc1ccccc1 (relative stereo) [Example 17b, trans-N-(1-(4-benzyl-7-fluoro-3-(methylamino)chroman-6-yl)azetidin-3-yl)-1-methyl-1H-pyrazole-4-sulfonamide] |
| ≦50 L/h/Kg | CN[C@H]1COc2cc(F)c(N3CC(NS(=O)(=O)c4cn(C)nn4)C3)cc2[C@H]1Cc1ccccc1 (relative stereo) [Example 18a, Cis-N-(1-(4-benzyl-7-fluoro-3-(methylamino)chroman-6-yl)azetidin-3-yl)-1-methyl-1H-1,2,3-triazole-4-sulfonamide] |

— patent US9586945B2, “Aminochromane, aminothiochromane and amino-1,2,3,4-tetrahydroquinoline derivatives, pharmaceutical compositions containing them, and their use in therapy” (AbbVie Deutschland GmbH & Co. KG, priority 2013, dated 2017)
